Measurements from publication PMC9140068, “Generation of HepG2 Cells with High Expression of Multiple Drug-Metabolizing Enzymes for Drug Discovery Research Using a PITCh System” (Cells, 2022).

Columns and labels:
WT-HepG2 cells = assay: Propranolol metabolite formation in WT-HepG2 cells (HPLC); type: in vitro ADME, human; settings: 1 μM propranolol, 360 min
Text: Figure 5 Major metabolites of propranolol formed by the CYPs–UGT1A1 KI-HepG2 cells. […] Data are means ± SD of three technical replicates. N.D., not detected.

[1] = test system: CYPs–UGT1A1 KI-HepG2 cells
Experimental: The HepG2 cells were seeded in 96-well plates at 1.0 × 10^4 cells/well. […] After 24 h, to examine the cell viability, we performed a WST-8 (2-(2-methoxy-4-nitrophenyl)-3-(4-nitrophenyl)-5-(2,4-disulfophenyl)-2H-tetrazolium, monosodium salt) assay by using Cell Count Reagent SF according to the manufacturer’s instructions. The cell viability was calculated as the percentage of that in the cells treated with a vehicle only.
After 24 h, cell viability was examined by WST-8 assay. The cell viability was calculated as a percentage of the number of cells after treatment with a solvent only. The results shown are means ± SD of three technical replicates.

[2] = test system: CYPs–UGT1A1 KI-HepG2 cells; assay: Propranolol metabolite formation in CYPs–UGT1A1 KI-HepG2 cells (HPLC); type: in vitro ADME, human; settings: 1 μM propranolol, 360 min
CYP2C9 = CYP2C9 (Homo sapiens, UniProt P11712)
Experimental: (§1) The cells were cultured on 48-well plates, then washed with pH 7.4 HBSS containing 10 mM HEPES and 25 mM glucose. […] After preincubation, HBSS containing 10 μM phenacetin, 10 μM diclofenac, 50 μM S-mephenytoin, 1 μM bufuralol, 10 μM midazolam, 10 μM 7′-hydroxy coumarin, or 1 μM propranolol was added, and the cells were incubated at 37 ℃ for 360 min. […] The samples were collected from the supernatant, then immediately mixed with the same volume of acetonitrile. The mixed solutions were centrifuged for 5 min at 15,000× g. […] HPLC analysis was performed using a LO-20AD SPD + RF (DGU-20A, LC-20AD, RF-20A xs, SIL-20AC, CBM-20A, SPD-20A, CTO-20AC; Shimadzu). The concentrations of each metabolite were calculated according to the respective standard followed by normalization to the protein content per well.
(§2) A value of p < 0.05 was considered statistically significant. Using the SigmaPlot v.
(§3) The quantity of metabolites (4′-hydroxy diclofenac, 1′-hydroxy bufuralol, and 1′-hydroxy midazolam; these compounds are metabolites for CYP2C9, 2D6, and 3A4, respectively) were measured by HPLC. Data represent the means ± SD (n = 3, technical replicates). Statistical analyses were performed using the unpaired two-tailed Student’s t test (** p < 0.01). […]

CYP2D6 = biological target: T1, CYP2D6 (Homo sapiens, UniProt P10635); assay: CYP2D6 inhibition in CYPs–UGT1A1 KI-HepG2 cells (1′-hydroxy bufuralol formation, HPLC); type: in vitro ADME
T1 construct: P2A self-cleaving peptide (upstream linker from CYP2C9) (N); T2A self-cleaving peptide (linker to HygR) (C); expressed in transfected cells
Experimental: as §1, §2, §3

T1 sequence (P10635 whole entry): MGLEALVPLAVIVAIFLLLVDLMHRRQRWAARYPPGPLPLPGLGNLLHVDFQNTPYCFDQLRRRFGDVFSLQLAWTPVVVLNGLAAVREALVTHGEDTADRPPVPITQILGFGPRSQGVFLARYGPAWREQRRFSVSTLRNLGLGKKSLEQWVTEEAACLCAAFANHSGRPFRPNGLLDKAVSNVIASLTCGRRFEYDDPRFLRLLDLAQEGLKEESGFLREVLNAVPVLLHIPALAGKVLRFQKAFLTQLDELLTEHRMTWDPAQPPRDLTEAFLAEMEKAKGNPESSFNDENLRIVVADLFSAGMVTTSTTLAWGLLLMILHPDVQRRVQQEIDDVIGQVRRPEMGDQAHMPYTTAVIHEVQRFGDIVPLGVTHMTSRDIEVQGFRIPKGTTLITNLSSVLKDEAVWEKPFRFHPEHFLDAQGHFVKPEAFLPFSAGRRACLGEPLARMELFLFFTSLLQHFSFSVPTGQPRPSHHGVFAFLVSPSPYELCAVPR
Sequence of CYP2C9 (P11712 whole entry): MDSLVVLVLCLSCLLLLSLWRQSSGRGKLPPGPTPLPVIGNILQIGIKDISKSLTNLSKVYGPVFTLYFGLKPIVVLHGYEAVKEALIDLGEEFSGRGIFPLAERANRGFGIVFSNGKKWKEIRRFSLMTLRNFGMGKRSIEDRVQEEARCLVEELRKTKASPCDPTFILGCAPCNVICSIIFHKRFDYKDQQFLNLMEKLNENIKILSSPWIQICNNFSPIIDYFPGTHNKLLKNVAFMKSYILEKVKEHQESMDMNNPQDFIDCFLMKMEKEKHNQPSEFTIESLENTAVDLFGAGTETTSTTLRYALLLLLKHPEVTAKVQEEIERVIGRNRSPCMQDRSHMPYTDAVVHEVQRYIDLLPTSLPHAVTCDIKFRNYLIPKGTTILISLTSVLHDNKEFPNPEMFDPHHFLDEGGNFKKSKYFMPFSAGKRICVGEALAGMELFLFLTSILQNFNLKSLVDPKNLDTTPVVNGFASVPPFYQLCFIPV

SMILES	Metabolite of propranolol formed (detection by HPLC) (WT-HepG2 cells)	Cell viability of CYPs–UGT1A1 KI-HepG2 cells compared with WT-HepG2 cells [1]	other results
CC(C)NCC(O)COc1ccc(O)c2ccccc12 (centres unmarked) [4′-hydroxy propranolol]	undetectable	–	–
CC(C)NCC(O)COc1cccc2c(O)cccc12 (centres unmarked) [5′-hydroxy propranolol]	undetectable	–	–
CC(=O)Nc1ccc(O)cc1 [acetaminophen]	–	lower	–
CCc1oc2ccccc2c1C(=O)c1cc(Br)c(O)c(Br)c1 [benzbromarone]	–	lower	–
NCC(O)COc1cccc2ccccc12 (centres unmarked) [desisopropylpropranolol]	undetectable	–	Metabolite of propranolol formed (detection by HPLC) [2]: present at detectable levels
CN(C)CCCN1c2ccccc2CCc2ccccc21 [imipramine]	–	lower	–
Nc1ccc(S(=O)(=O)Nc2ccnn2-c2ccccc2)cc1 [sulfaphenazole]	–	–	CYP2C9 activity in the presence of the inhibitor (CYP2C9): significantly decreased
CN(C/C=C/C#CC(C)(C)C)Cc1cccc2ccccc12 [terbinafine]	–	–	CYP2D6 activity in the presence of the inhibitor (CYP2D6; 10 μM inhibitor, 1 μM bufuralol, p < 0.01): significantly decreased; IC50 (CYP2D6; substrate 1 μM bufuralol, inhibitor 0.03-10 μM, 30 min preincubation, 360 min incubation): 0.0635 µM
Cc1c(C)c2c(c(C)c1O)CCC(C)(COc1ccc(CC3SC(=O)NC3=O)cc1)O2 (centres unmarked) [troglitazone]	–	lower	–
